# Tests used:
# MDA-MB-231 [1] = experiment: drug sensitivity score (DSS), cell viability CellTiter-Glo; higher = more sensitive; extreme values may be limits of the assay; conditions: 72 h
# MDA-MB-231 [2] = experiment: drug sensitivity score (DSS), cytotoxicity CellTox Green; higher = more cytotoxic; extreme values may be limits of the assay; conditions: 72 h
# 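For drug sensitivity score (DSS), cytotoxicity CellTox Green in this document: DSS summarises each dose–response curve by combining IC50, EC50, maximal inhibition and efficacy across drug concentrations.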
Structure (SMILES),drug sensitivity score (MDA-MB-231 [1]; shRNA: shPPFIA1_1),drug sensitivity score (MDA-MB-231 [1]; shRNA: shScramble),drug sensitivity score (MDA-MB-231 [2]; shRNA: shPPFIA1_1),drug sensitivity score (MDA-MB-231 [2]; shRNA: shScramble)
CCCCc1nc2cc(/C=C/C(=O)NO)ccc2n1CCN(CC)CC [Pracinostat],10.6 DSS,11.9 DSS,8.1 DSS,8.5 DSS
CC[C@H](C)C(=O)O[C@H]1C[C@H](O)C=C2C=C[C@H](C)[C@H](CC[C@@H](O)C[C@@H](O)CC(=O)O)[C@H]21 [Pravastatin],2.5 DSS,1.8 DSS,0 DSS,0 DSS
C[C@]12C=CC(=O)C=C1CC[C@@H]1[C@@H]2[C@@H](O)C[C@@]2(C)[C@H]1CC[C@]2(O)C(=O)CO [Prednisolone],0 DSS,0 DSS,0 DSS,0 DSS
C[C@]12C=CC(=O)C=C1CC[C@@H]1[C@@H]2C(=O)C[C@@]2(C)[C@H]1CC[C@]2(O)C(=O)CO [Prednisone],0 DSS,0 DSS,0 DSS,0 DSS
COc1cccc(OCCCN)c1-c1cc(Nc2cnc(C#N)cn2)n[nH]1 [Prexasertib],13.2 DSS,29.8 DSS,21 DSS,6.9 DSS
CNNCc1ccc(C(=O)NC(C)C)cc1 [Procarbazine],0 DSS,0 DSS,0 DSS,0 DSS
Cc1cc(-c2ncc(-c3cccnc3)cc2/C=C/c2ccccc2)cnc1-c1cccnc1 [Pyridoclax],1.9 DSS,5.9 DSS,0.3 DSS,0 DSS
Cn1cc(CNCC2CCN(c3ncc(C(=O)NO)cn3)CC2)c2ccccc21 [Quisinostat],8.8 DSS,11.2 DSS,8.6 DSS,8.2 DSS
CC(C)(C)c1cc(NC(=O)Nc2ccc(-c3cn4c(n3)sc3cc(OCCN5CCOCC5)ccc34)cc2)no1 [Quizartinib],0 DSS,0 DSS,0 DSS,0 DSS
Cn1c(Nc2ccc(C(F)(F)F)cc2)nc2cc(Oc3ccnc(-c4ncc(C(F)(F)F)[nH]4)c3)ccc21 [RAF265],0 DSS,1.8 DSS,0 DSS,1.6 DSS
CNC(=O)c1ccc(N2C(=S)N(c3ccc(C#N)c(C(F)(F)F)c3)C(=O)C23CCC3)cc1F [RD162],0 DSS,0 DSS,0.8 DSS,0 DSS
CCNC(=O)Nc1ccc(-c2nc3c(c(N4CCOC[C@@H]4C)n2)CCN(C2COC2)C3)cc1 [RG-7603],0 DSS,2.7 DSS,0 DSS,0 DSS
Nc1cc(F)ccc1NC(=O)/C=C/c1cnn(C/C=C/c2ccccc2)c1 [RGFP966],2.6 DSS,0.2 DSS,3.1 DSS,0 DSS
Cc1cnc(NC(=O)Nc2cc(Br)c(C)cc2OC[C@@H]2CNCCO2)cn1 [Rabusertib],5.3 DSS,2 DSS,0 DSS,0 DSS
C[C@@H]1C[C@H]2O[C@@H]2/C=C\C=C\C(=O)Cc2c(Cl)c(O)cc(O)c2C(=O)O1 [Radicicol],2 DSS,6.4 DSS,0 DSS,1.9 DSS
CC(C)(C)Cn1c(N)nc2ccc(-c3[nH]c(C(C)(C)C)nc3-c3ccc(F)cc3)nc21 [Ralimetinib],0.2 DSS,0 DSS,0 DSS,0 DSS
O=C(c1ccc(OCCN2CCCCC2)cc1)c1c(-c2ccc(O)cc2)sc2cc(O)ccc12 [Raloxifene],3.5 DSS,3.1 DSS,0.4 DSS,0 DSS
Cc1nc(=O)c2cc(CN(C)c3ccc(C(=O)N[C@@H](CCC(=O)O)C(=O)O)s3)ccc2[nH]1 [Raltitrexed],0 DSS,0 DSS,0 DSS,0 DSS
CNC(=O)c1cc(Oc2ccc(NC(=O)Nc3cc(C(C)(C)C)nn3-c3ccc4ncccc4c3)c(F)c2)ccn1 [Rebastinib],0 DSS,0 DSS,0 DSS,0 DSS
COc1cc(F)c(F)c(Nc2ccc(I)cc2F)c1NS(=O)(=O)C1(C[C@H](O)CO)CC1 [Refametinib],6 DSS,10.6 DSS,10.5 DSS,18.6 DSS
CNC(=O)c1cc(Oc2ccc(NC(=O)Nc3ccc(Cl)c(C(F)(F)F)c3)c(F)c2)ccn1 [Regorafenib],3.6 DSS,7 DSS,8.2 DSS,4.3 DSS

Structure (SMILES),drug sensitivity score (MDA-MB-231 [1]; shRNA: shPPFIA1_1),drug sensitivity score (MDA-MB-231 [1]; shRNA: shScramble),drug sensitivity score (MDA-MB-231 [2]; shRNA: shPPFIA1_1),drug sensitivity score (MDA-MB-231 [2]; shRNA: shScramble)
CN(C)Cc1ccc(S(=O)(=O)n2ccc(/C=C/C(=O)NO)c2)cc1 [Resminostat],2.5 DSS,7.1 DSS,7.5 DSS,4.4 DSS
CN(C)C(=O)c1cc2cnc(Nc3ccc(N4CCNCC4)cn3)nc2n1C1CCCC1 [Ribociclib],0 DSS,0 DSS,0 DSS,0 DSS
CO[C@H]1C[C@@H]2CC[C@@H](C)[C@@](O)(O2)C(=O)C(=O)N2CCCC[C@H]2C(=O)O[C@H]([C@H](C)C[C@@H]2CC[C@@H](OP(C)(C)=O)[C@H](OC)C2)CC(=O)[C@H](C)/C=C(\C)[C@@H](O)[C@@H](OC)C(=O)[C@H](C)C[C@H](C)/C=C/C=C/C=C/1C [Ridaforolimus],0 DSS,1.6 DSS,0 DSS,0 DSS
COc1cc(OC)c(/C=C/S(=O)(=O)Cc2ccc(OC)c(NCC(=O)O)c2)c(OC)c1 [Rigosertib],0 DSS,5.3 DSS,2.4 DSS,2.4 DSS
C=CC(=O)Nc1cccc(Nc2nc(Nc3ccc(N4CCN(C(C)=O)CC4)cc3OC)ncc2C(F)(F)F)c1 [Rociletinib],0 DSS,2.8 DSS,0 DSS,0 DSS
O=C(CCCCCCNC(=O)c1cnc(N(c2ccccc2)c2ccccc2)nc1)NO [Rocilinostat],2.1 DSS,3.5 DSS,6.7 DSS,1 DSS
CS(=O)(=O)c1ccc(C2=C(c3ccccc3)C(=O)OC2)cc1 [Rofecoxib],0 DSS,0 DSS,0 DSS,0 DSS
C/C=C1\NC(=O)[C@H]2CSSCC/C=C/[C@H](CC(=O)N[C@H](C(C)C)C(=O)N2)OC(=O)[C@H](C(C)C)NC1=O [Romidepsin],20.5 DSS,29 DSS,33.6 DSS,26.9 DSS
CN(C)C[C@@H]1CCn2cc(c3ccccc32)C2=C(C(=O)NC2=O)c2cn(c3ccccc23)CCO1 [Ruboxistaurin],7.2 DSS,7 DSS,3.8 DSS,5.5 DSS
CNCc1ccc(-c2[nH]c3cc(F)cc4c3c2CCNC4=O)cc1 [Rucaparib],0 DSS,0 DSS,0 DSS,0 DSS
N#CC[C@H](C1CCCC1)n1cc(-c2ncnc3[nH]ccc23)cn1 [Ruxolitinib],0.6 DSS,2.1 DSS,0 DSS,0 DSS
CC(C)N(CCCNC(=O)Nc1ccc(C(C)(C)C)cc1)C[C@H]1O[C@@H](n2cc(Br)c3c(N)ncnc32)[C@H](O)[C@@H]1O [SGC0946],5 DSS,1.5 DSS,5.5 DSS,0.6 DSS
COc1ccc(CCc2nc3cc(-c4c(C)noc4C)ccc3n2C[C@H](C)N2CCOCC2)cc1Cl [SGC-CBP30],0 DSS,2.4 DSS,0 DSS,0 DSS
CN1CCC(CNc2ccc3ncc(-c4cccc(OC(F)(F)F)c4)n3n2)CC1 [SGI-1776],9 DSS,9 DSS,4.9 DSS,4.7 DSS
Cn1cc(-c2ccc3nnc(Sc4ccc5ncccc5c4)n3n2)cn1 [SGX-523],0.9 DSS,0 DSS,0 DSS,0.9 DSS
CN(CC(=O)N(Cc1ccc(C2CCCCC2)cc1)c1ccc(C(=O)O)cc1)S(=O)(=O)c1c(F)c(F)c(F)c(F)c1F [SH-4-54],3.8 DSS,5.7 DSS,7.3 DSS,7.7 DSS
CC(C)NC(=O)COc1cccc(-c2nc(Nc3ccc4[nH]ncc4c3)c3ccccc3n2)c1 [SLx-2119],0 DSS,0 DSS,0 DSS,0 DSS
CCc1c2c(nc3ccc(O)cc13)-c1cc3c(c(=O)n1C2)COC(=O)[C@]3(O)CC [SN-38],0.2 DSS,7.6 DSS,14.9 DSS,2 DSS
CC(C)(C)c1cnc(CSc2cnc(NC(=O)C3CCNCC3)s2)o1 [SNS-032],5.8 DSS,13.1 DSS,10.5 DSS,6.3 DSS
O=C(Nc1cccc(Cl)c1)Nc1ncc(CCNc2ncnc3ccsc23)s1 [SNS-314],0 DSS,0 DSS,0 DSS,0 DSS
Cc1cc2c(C(=O)NC[C@H](C)c3ccccc3)c(O)c(O)cc2c(O)c1-c1c(C)cc2c(C(=O)NC[C@H](C)c3ccccc3)c(O)c(O)cc2c1O [Sabutoclax],11.8 DSS,13.6 DSS,11.4 DSS,5.6 DSS

Structure (SMILES),drug sensitivity score (MDA-MB-231 [1]; shRNA: shPPFIA1_1),drug sensitivity score (MDA-MB-231 [1]; shRNA: shScramble),drug sensitivity score (MDA-MB-231 [2]; shRNA: shPPFIA1_1),drug sensitivity score (MDA-MB-231 [2]; shRNA: shScramble)
CNC(=O)CN1CCC(Oc2cc3c(Nc4cccc(Cl)c4F)ncnc3cc2OC)CC1 [Sapitinib],0 DSS,8.5 DSS,0 DSS,0 DSS
CN1CCN(CCOc2cc(OC3CCOCC3)c3c(Nc4c(Cl)ccc5c4OCO5)ncnc3c2)CC1 [Saracatinib],2.9 DSS,2.7 DSS,2.5 DSS,1.3 DSS
CC[C@H](CO)Nc1nc(NCc2ccccc2)c2ncn(C(C)C)c2n1 [Seliciclib],0 DSS,0 DSS,0 DSS,0 DSS
O=C(/C=C\n1cnc(-c2cc(C(F)(F)F)cc(C(F)(F)F)c2)n1)NNc1cnccn1 [Selinexor],8.6 DSS,13.5 DSS,5.8 DSS,8.1 DSS
Cn1cnc2c(F)c(Nc3ccc(Br)cc3Cl)c(C(=O)NOCCO)cc21 [Selumetinib],0.3 DSS,5.2 DSS,3.8 DSS,8 DSS
Cc1cc(C)c(/C=C2\C(=O)Nc3ccccc32)[nH]1 [Semaxanib],0 DSS,0 DSS,0.2 DSS,3.5 DSS
c1ccc2c(CCNc3ccc(Nc4ccncc4)cc3)c[nH]c2c1 [Serdemetan],3 DSS,0.7 DSS,0 DSS,0 DSS
O=C(O)c1ccc2c(c1)nc(Nc1cccc(Cl)c1)c1ccncc12 [Silmitasertib],0 DSS,3.5 DSS,0 DSS,0 DSS
CO[C@H]1C[C@@H]2CC[C@@H](C)[C@@](O)(O2)C(=O)C(=O)N2CCCC[C@H]2C(=O)O[C@H]([C@H](C)C[C@@H]2CC[C@@H](O)[C@H](OC)C2)CC(=O)[C@H](C)/C=C(\C)[C@@H](O)[C@@H](OC)C(=O)[C@H](C)C[C@H](C)/C=C/C=C/C=C/1C [Sirolimus],0 DSS,6 DSS,0 DSS,0 DSS
Cc1c(C(=O)Nc2ccc(N3C[C@@H](C)O[C@@H](C)C3)nc2)cccc1-c1ccc(OC(F)(F)F)cc1 [Sonidegib],1.1 DSS,2.4 DSS,0 DSS,0 DSS
C=CCN(/C=C1/C(=O)O[C@H](COC)[C@@]2(C)C1=C(O)C(=O)C1=C2[C@H](OC(C)=O)C[C@]2(C)C(=O)CC[C@@H]12)CC=C [Sonolisib],0 DSS,0 DSS,0 DSS,0 DSS
CNC(=O)c1cc(Oc2ccc(NC(=O)Nc3ccc(Cl)c(C(F)(F)F)c3)cc2)ccn1 [Sorafenib],0 DSS,0 DSS,0 DSS,0 DSS
CN1CCN(c2nc(C3=C(c4c[nH]c5ccccc45)C(=O)NC3=O)c3ccccc3n2)CC1 [Sotrastaurin],1 DSS,0 DSS,0.7 DSS,0 DSS
C=CC(=O)Nc1cccc(Nc2nc(Nc3ccc(OCCOC)cc3)ncc2F)c1 [Spebrutinib],0 DSS,0.4 DSS,0 DSS,0 DSS
O=[N+]([O-])c1ccc2c(c1)S(=O)(=O)C=C2 [Stattic],6.6 DSS,9.4 DSS,4.4 DSS,7.2 DSS
CC(C)n1cnc2c(NCCc3ccc(O)cc3)nc(-c3csc4ccccc34)nc21 [StemRegenin 1],2.3 DSS,0.2 DSS,0.8 DSS,0.4 DSS
CN(N=O)C(=O)N[C@@H](C=O)[C@@H](O)[C@H](O)[C@H](O)CO [Streptozocin],0.1 DSS,0.3 DSS,0 DSS,0 DSS
CCN(CC)CCNC(=O)c1c(C)[nH]c(/C=C2\C(=O)Nc3ccc(F)cc32)c1C [Sunitinib],0 DSS,1.1 DSS,0 DSS,0 DSS
CC(C)(O)CC(=O)NCCn1ccc2ncnc(Nc3ccc(Oc4cccc(C(F)(F)F)c4)c(Cl)c3)c21 [TAK-285],0.9 DSS,0 DSS,0 DSS,0 DSS

# — the supplement of paper PMC10920090
